Data published in PMC9870890 (Nature Communications, 2023).
Residue numbers refer to the chain shown, from its start. Where “and” joins values, the source holds several entries; their conditions need not be identical. Equal entries are not always repeated.

Columns and labels:
M2R and GoA = molecular target: T1, M2R and GoA (Homo sapiens, UniProt P08172); assay: GTPase-Glo assay (GTP turnover) with purified M2R and GoA; format: biochemical; conditions: for Residual GTP (%): 90 min, normalized to GoA alone
T1 construct: FLAG (N); 8xHis (C); made in house; host or cells: Sf9 insect cells (receptor)
T1 sequence (P59768 2-68, one chain of several): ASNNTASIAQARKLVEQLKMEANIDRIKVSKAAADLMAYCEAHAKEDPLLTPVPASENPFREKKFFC
T1 sequence (P09471 2-354, one chain of several, further chain): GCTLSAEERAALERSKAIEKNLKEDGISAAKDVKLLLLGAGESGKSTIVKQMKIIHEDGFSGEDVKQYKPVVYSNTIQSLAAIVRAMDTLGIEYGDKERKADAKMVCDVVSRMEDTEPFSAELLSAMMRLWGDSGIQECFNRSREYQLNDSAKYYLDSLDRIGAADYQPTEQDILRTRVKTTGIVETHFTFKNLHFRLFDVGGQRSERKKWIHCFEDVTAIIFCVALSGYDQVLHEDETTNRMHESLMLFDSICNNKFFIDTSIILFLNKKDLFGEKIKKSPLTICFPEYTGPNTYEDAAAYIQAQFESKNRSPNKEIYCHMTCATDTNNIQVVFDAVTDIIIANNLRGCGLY
T1 sequence (P62873 whole entry, one chain of several, further chain): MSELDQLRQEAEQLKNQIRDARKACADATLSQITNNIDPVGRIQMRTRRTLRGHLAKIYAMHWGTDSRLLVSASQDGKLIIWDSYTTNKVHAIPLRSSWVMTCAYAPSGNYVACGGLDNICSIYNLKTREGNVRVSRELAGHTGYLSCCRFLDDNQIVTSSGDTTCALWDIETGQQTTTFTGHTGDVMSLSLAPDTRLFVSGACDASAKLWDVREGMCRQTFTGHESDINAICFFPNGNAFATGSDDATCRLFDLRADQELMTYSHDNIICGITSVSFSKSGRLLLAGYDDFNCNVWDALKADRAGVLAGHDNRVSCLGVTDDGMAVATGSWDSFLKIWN
Procedure: The receptors for GTPase-Glo^TM assay were expressed and purified as described above and frozen at −80 °C before use. […] The GTPase reaction was incubated at room temperature (22–25 °C) for different times (15–90 min). […] After incubation, 5 μL reconstituted 1xGTPase-Glo^TM Reagent (Promega) was added to the completed GTPase reaction, mixed briefly and incubated with shaking for 30 min at room temperature (22–25 °C) to convert the remaining GTP into ATP. Then 10 μL Detection Reagent (Promega) was added to the system and incubated for 5-10 min at room temperature (22–25 °C) to convert the ATP into luminescent signals. Luminescence intensity was quantified using a Multimode Plate Reader (PerkinElmer) luminescence counter.

human, wild-type M2R = molecular target: T2, human, wild-type M2R (Homo sapiens, UniProt P08172); assay: NanoBiT-G-protein (GoA) dissociation assay, wild-type M2R, HEK293A cells; format: cell-based; conditions: for NanoBiT-GoA dissociation signal, Mean (Veh = 1.000): n = 4
T2 construct: expressed in transfected cells; host or cells: HEK293A
T2 sequence (P08172 1-466): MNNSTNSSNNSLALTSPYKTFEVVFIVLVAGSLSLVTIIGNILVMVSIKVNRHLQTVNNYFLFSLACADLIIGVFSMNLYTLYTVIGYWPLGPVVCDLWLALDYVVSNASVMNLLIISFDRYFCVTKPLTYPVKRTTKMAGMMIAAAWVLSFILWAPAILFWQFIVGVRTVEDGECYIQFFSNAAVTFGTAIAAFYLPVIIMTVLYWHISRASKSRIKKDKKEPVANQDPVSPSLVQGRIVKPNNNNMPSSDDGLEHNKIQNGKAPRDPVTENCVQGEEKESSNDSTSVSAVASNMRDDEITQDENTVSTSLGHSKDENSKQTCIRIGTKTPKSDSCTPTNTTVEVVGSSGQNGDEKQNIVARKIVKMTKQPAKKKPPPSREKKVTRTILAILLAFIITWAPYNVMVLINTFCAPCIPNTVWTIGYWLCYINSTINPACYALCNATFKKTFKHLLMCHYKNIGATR
Procedure: Plasmid transfection for HEK293A cells (Thermo Fisher Scientific) was performed by combining 25 µl (volume is per 10-cm culture dish) of polyethylenimine solution (1 mg/mL) and a mixture of plasmids each encoding the large fragment (LgBiT)-containing the GαoA subunit (500 ng), the small fragment (SmBiT)-fused Gγ2 subunit with the C68S mutation (2.5 µg) and the untagged Gβ1 subunit (2.5 µg), along with a human, wild-type M2R (1 µg; containing N-terminal HA-derived signal sequence followed by the FLAG-epitope tag). After an incubation for one day, the transfected cells were harvested, pelleted with centrifugation, and suspended in 9 ml of Hank’s balanced saline solution (HBSS) containing 0.01% bovine serum albumin (BSA fatty acid–free grade, SERVA) and 5 mM HEPES (pH 7.4) (assay buffer). The cell suspension was dispensed in a white 96-well plate at a volume of 70 µl per well and mixed with 20 µl of 50 µM coelenterazine (Carbosynth) diluted in the assay buffer. After 2 h incubation at room temperature, the plate was measured for baseline luminescence (SpectraMax L, Molecular Devices) and 10 µl of titrated concentrations of LY2119620 diluted in the assay buffer were added. […] Kinetics data points from 5 min to 10 min were averaged and normalized to the initial count and used as a G-protein dissociation index. […] The G-protein dissociation signals were fitted to a four-parameter sigmoidal concentration-response curve (GraphPad Prism8). For each experiment, we calculated Emax by normalizing Span to the LY2119620-free condition and ∆pEC50 by subtracting pEC50 of the LY2119620-free condition performed in parallel and used the values to denote allosteric modulator activity.

Mock = assay: NanoBiT-GoA dissociation assay, Mock-transfected cells (control); format: cell-based
M2R = molecular target: T3, M2R (Homo sapiens, UniProt P08172); assay: biochemical; format: binding; parameters: expressed in transfected cells; conditions: for IC50: IC50 ([3H]-NMS competition)
T3 sequence (P08172 1-466): T2 sequence (P08172 1-466)
Procedure: Purified M2R receptor was reconstituted into high-density lipoprotein (HDL) particles constituting apolipoprotein A1(APOA1) and mixture of POPG: POPC lipids with 3:2 (mol:mol)ratio as previously described. […] Membranes or HDL particles were separated from excess [^3H]-NMS by Whatman GF/B filters using a Brandel 48-well harvester. The bound radioligand were read on a liquid scintillation counter (MicroBeta Jet, PerkinElmer). Data were analyzed by GraphPad Prism 9.2.0.

M2R L129^34.51A mutant = molecular target: T4, M2R L129^34.51A mutant (Homo sapiens, UniProt P08172, L129A); assay: NanoBiT-GoA dissociation assay, L129A mutant M2R
T4 sequence (P08172 1-466 L129A): T2 sequence (P08172 1-466) with L129A
Procedure: Plasmid transfection for HEK293A cells (Thermo Fisher Scientific) was performed by combining 25 µl (volume is per 10-cm culture dish) of polyethylenimine solution (1 mg/mL) and a mixture of plasmids each encoding the large fragment (LgBiT)-containing the GαoA subunit (500 ng), the small fragment (SmBiT)-fused Gγ2 subunit with the C68S mutation (2.5 µg) and the untagged Gβ1 subunit (2.5 µg), along with a human, wild-type M2R (1 µg; containing N-terminal HA-derived signal sequence followed by the FLAG-epitope tag). After an incubation for one day, the transfected cells were harvested, pelleted with centrifugation, and suspended in 9 ml of Hank’s balanced saline solution (HBSS) containing 0.01% bovine serum albumin (BSA fatty acid–free grade, SERVA) and 5 mM HEPES (pH 7.4) (assay buffer). The cell suspension was dispensed in a white 96-well plate at a volume of 70 µl per well and mixed with 20 µl of 50 µM coelenterazine (Carbosynth) diluted in the assay buffer. […] Kinetics data points from 5 min to 10 min were averaged and normalized to the initial count and used as a G-protein dissociation index. For the mutant study, the cell culture and the transfection mixture were scaled down to a 6-cm dish (4 ml culture media) and the transfected cells were suspended in 4 ml of the assay buffer and seeded in the 96-well plate at a volume of 80 µL. The G-protein dissociation signals were fitted to a four-parameter sigmoidal concentration-response curve (GraphPad Prism8). For each experiment, we calculated Emax by normalizing Span to the LY2119620-free condition and ∆pEC50 by subtracting pEC50 of the LY2119620-free condition performed in parallel and used the values to denote allosteric modulator activity. Similarly, for the mutant study, we calculated ∆pEC50 by subtracting pEC50 of the WT (1:1) condition performed in parallel.

## C[N+](C)(C)CC#CCOC1=NOCC1 [Ixo, iperoxo]
M2R and GoA; +DMSO
  Residual GTP (%): 7.331% and 3.598% and 1.619%
M2R and GoA; +LY2119620 (100 μM)
  Residual GTP (%): 34.958% and 41.3656% and 22.0231%
M2R and GoA; time 15 min, 100 μM ACh or 10 μM Ixo, M2R-GoA
  GTP-turnover, Fig. 1c (GTPase-Glo luminescence): 432481 and 362971 and 431239 and 324973
human, wild-type M2R; WT (1:1), reference
  ∆pEC50: 0.000
human, wild-type M2R; WT (1:1), IXO Log [M] -6
  NanoBiT-GoA dissociation signal, Mean (Veh = 1.000): 0.334
human, wild-type M2R; WT (1:1), IXO Log [M] -7
  NanoBiT-GoA dissociation signal, Mean (Veh = 1.000): 0.343
human, wild-type M2R; WT (1:1), IXO Log [M] -8
  NanoBiT-GoA dissociation signal, Mean (Veh = 1.000): 0.377
human, wild-type M2R; WT (1:1), IXO Log [M] -9
  NanoBiT-GoA dissociation signal, Mean (Veh = 1.000): 0.510
human, wild-type M2R; WT (1:1), IXO Log [M] -10
  NanoBiT-GoA dissociation signal, Mean (Veh = 1.000): 0.788
human, wild-type M2R; WT (1:1), IXO Log [M] -11
  NanoBiT-GoA dissociation signal, Mean (Veh = 1.000): 0.961
human, wild-type M2R; WT (1:1), IXO Log [M] -12
  NanoBiT-GoA dissociation signal, Mean (Veh = 1.000): 1.000
human, wild-type M2R; WT (1:2)
  ∆pEC50: -0.203 and -0.153 and -0.342 and -0.212
human, wild-type M2R; WT (1:2), IXO Log [M] -6
  NanoBiT-GoA dissociation signal, Mean (Veh = 1.000): 0.338
human, wild-type M2R; WT (1:2), IXO Log [M] -7
  NanoBiT-GoA dissociation signal, Mean (Veh = 1.000): 0.345
human, wild-type M2R; WT (1:2), IXO Log [M] -8
  NanoBiT-GoA dissociation signal, Mean (Veh = 1.000): 0.397
human, wild-type M2R; WT (1:2), IXO Log [M] -9
  NanoBiT-GoA dissociation signal, Mean (Veh = 1.000): 0.567
human, wild-type M2R; WT (1:2), IXO Log [M] -10
  NanoBiT-GoA dissociation signal, Mean (Veh = 1.000): 0.844
human, wild-type M2R; WT (1:2), IXO Log [M] -11
  NanoBiT-GoA dissociation signal, Mean (Veh = 1.000): 0.975
human, wild-type M2R; WT (1:2), IXO Log [M] -12
  NanoBiT-GoA dissociation signal, Mean (Veh = 1.000): 1.005
Mock; IXO Log [M] -6, n = 3
  NanoBiT-GoA dissociation signal, Mean (Veh = 1.000): 0.990
Mock; IXO Log [M] -7, n = 3
  NanoBiT-GoA dissociation signal, Mean (Veh = 1.000): 0.997
Mock; IXO Log [M] -8, n = 3
  NanoBiT-GoA dissociation signal, Mean (Veh = 1.000): 0.995
Mock; IXO Log [M] -9, n = 3
  NanoBiT-GoA dissociation signal, Mean (Veh = 1.000): 1.002
Mock; IXO Log [M] -10, n = 3
  NanoBiT-GoA dissociation signal, Mean (Veh = 1.000): 1.001
Mock; IXO Log [M] -11, n = 3
  NanoBiT-GoA dissociation signal, Mean (Veh = 1.000): 1.005
Mock; IXO Log [M] -12, n = 3
  NanoBiT-GoA dissociation signal, Mean (Veh = 1.000): 1.002
M2R; M2R in HDL particles, +GoA
  IC50: 1.8 nM
M2R; M2R in HDL particles, absence of GoA
  IC50: 47.7 nM
M2R; M2R in HDL particles
  increase of affinity on addition of GoA: ~ 27 fold
M2R; log[M] -6, without GoA
  competition curve data, Fig. 1b ([3H]-NMS binding): 5.629 and 5.897 and 4.938
M2R; log[M] -7, +GoA
  competition curve data, Fig. 1b ([3H]-NMS binding): 1.735 and 2.591
M2R; log[M] -7, without GoA
  competition curve data, Fig. 1b ([3H]-NMS binding): 32.2784 and 32.9838 and 32.0245
M2R; log[M] -8, +GoA
  competition curve data, Fig. 1b ([3H]-NMS binding): 6.41 and 4.7831 and 8.225
M2R; log[M] -8, without GoA
  competition curve data, Fig. 1b ([3H]-NMS binding): 80.5549 and 71.1592 and 70.0024
M2R; log[M] -9, +GoA
  competition curve data, Fig. 1b ([3H]-NMS binding): 64.4578 and 59.7146 and 77.1975
M2R; log[M] -9, without GoA
  competition curve data, Fig. 1b ([3H]-NMS binding): 92.3489 and 93.3083 and 87.8063
M2R; log[M] -10, +GoA
  competition curve data, Fig. 1b ([3H]-NMS binding): 85.6735 and 79.355 and 99.5434
M2R; log[M] -10, without GoA
  competition curve data, Fig. 1b ([3H]-NMS binding): 97.3148 and 101.914 and 100.771
M2R; log[M] -11, +GoA
  competition curve data, Fig. 1b ([3H]-NMS binding): 89.0468 and 92.1461 and 118.807
M2R; log[M] -11, without GoA
  competition curve data, Fig. 1b ([3H]-NMS binding): 86.0992 and 80.6395 and 89.0477
M2R; log[M] -12, +GoA
  competition curve data, Fig. 1b ([3H]-NMS binding): 107.797 and 98.7044 and 86.8037
M2R; log[M] -12, without GoA
  competition curve data, Fig. 1b ([3H]-NMS binding): 98.7115 and 87.2702 and 99.5439
M2R L129^34.51A mutant
  ∆pEC50: -0.434 and -0.475 and -0.315
M2R L129^34.51A mutant; IXO Log [M] -6, n = 3
  NanoBiT-GoA dissociation signal, Mean (Veh = 1.000): 0.336
M2R L129^34.51A mutant; IXO Log [M] -7, n = 3
  NanoBiT-GoA dissociation signal, Mean (Veh = 1.000): 0.355
M2R L129^34.51A mutant; IXO Log [M] -8, n = 3
  NanoBiT-GoA dissociation signal, Mean (Veh = 1.000): 0.423
M2R L129^34.51A mutant; IXO Log [M] -9, n = 3
  NanoBiT-GoA dissociation signal, Mean (Veh = 1.000): 0.635
M2R L129^34.51A mutant; IXO Log [M] -10, n = 3
  NanoBiT-GoA dissociation signal, Mean (Veh = 1.000): 0.887
M2R L129^34.51A mutant; IXO Log [M] -11, n = 3
  NanoBiT-GoA dissociation signal, Mean (Veh = 1.000): 0.985
M2R L129^34.51A mutant; IXO Log [M] -12, n = 3
  NanoBiT-GoA dissociation signal, Mean (Veh = 1.000): 1.001
